# Measurements published in patent US7504420B2, “Compounds which inhibit beta-secretase activity and methods of use” (CoMentis, Inc., priority 2005, dated 2009).
# Structures can show the parent of a compound that is named as a salt.
# Target: memapsin 2 (Homo sapiens, UniProt P56817)
# Assay: Inhibition of memapsin 2 catalytic activity (Ki)
# Assay type: biochemical
# Conditions: memapsin 2, pH 4, 37° C.; read-out: M2K
# Protocol: Potency of compounds were determined by measurement of their inhibition of memapsin 2 catalytic activity toward a fluorescent substrate. […] Briefly, assays were performed at pH 4, 37° C., by pre-incubation of memapsin 2 enzyme with compound for 20 minutes. Activity measure was initiated by addition of a fluorogenic substrate FS-2 (Bachem Americas, Torrance, Calif.). Fluorescent signal increase over time was measured as a rate of hydrolysis of the peptide substrate. […]
# Chain of memapsin 2 (P56817 46-501): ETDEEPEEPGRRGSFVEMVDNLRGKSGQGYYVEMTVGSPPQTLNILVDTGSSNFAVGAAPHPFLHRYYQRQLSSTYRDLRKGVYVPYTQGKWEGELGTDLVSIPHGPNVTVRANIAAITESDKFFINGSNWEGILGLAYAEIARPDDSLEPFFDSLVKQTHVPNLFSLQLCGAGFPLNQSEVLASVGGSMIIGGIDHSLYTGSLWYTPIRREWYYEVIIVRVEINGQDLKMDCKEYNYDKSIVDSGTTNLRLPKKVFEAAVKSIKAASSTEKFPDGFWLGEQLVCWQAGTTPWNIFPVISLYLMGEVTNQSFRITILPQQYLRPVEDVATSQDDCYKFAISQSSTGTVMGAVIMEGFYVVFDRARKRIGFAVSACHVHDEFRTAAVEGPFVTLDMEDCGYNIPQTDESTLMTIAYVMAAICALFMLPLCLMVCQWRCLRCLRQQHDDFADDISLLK
row,Ki,SMILES
1,< 300 nM,COc1cccc(CNCC(O)C(Cc2ccccc2)NC(=O)c2cc(C(=O)NC(C)c3cccc(F)c3)cc(N(C)S(C)(=O)=O)c2)c1 (centres unmarked) [N1-(1-(3-fluorophenyl)ethyl)-N3-(3-hydroxy-4-(3-methoxybenzylamino)-1-phenylbutan-2-yl)-5-(N-methylmethylsulfonamido)isophthalamide]
2,> 501 nM,"COc1cccc(CNCC(O)C(Cc2ccccc2)NC(=O)c2cc(C(=O)NC(C)C3COC4OCCC43)cc(N(C)S(C)(=O)=O)c2)c1 (centres unmarked) [N1-(1-(hexahydrofuro[2,3-b]furan-3-yl)ethyl)-N3-(3-hydroxy-4-(3-methoxybenzylamino)-1-phenylbutan-2-yl)-5-(N-methylmethylsulfonamido)isophthalamide]"
3,< 300 nM,CC(NC(=O)c1cc(C(=O)NC(Cc2ccccc2)C(O)CNCc2cn(COCC[Si](C)(C)C)cn2)cc(N(C)S(C)(=O)=O)c1)c1ccccc1 (centres unmarked) [N1-(3-hydroxy-1-phenyl-4-((1-((2-(trimethylsilyl)ethoxy)methyl)-1H-imidazol-4-yl)methylamino)butan-2-yl)-5-(N-methylmethylsulfonamido)-N3-(1-phenylethyl)isophthalamide]
4,< 300 nM,COc1cccc(C(C)NCC(O)C(Cc2ccccc2)NC(=O)c2cccc(C(=O)N(C)Cc3nc(C)cs3)c2)c1 (centres unmarked) [N1-(3-hydroxy-4-(1-(3-methoxyphenyl)ethylamino)-1-phenylbutan-2-yl)-N3-methyl-N3-((4-methylthiazol-2-yl)methyl)isophthalamide]
5,< 300 nM,COc1cccc(CNCC(O)C(Cc2ccccc2)NC(=O)c2cccc(C(=O)N(Cc3nc(C)cs3)CC(C)C)c2)c1 (centres unmarked) [N1-(3-hydroxy-4-(3-methoxybenzylamino)-1-phenylbutan-2-yl)-N3-isobutyl-N3-((4-methylthiazol-2-yl)methyl)isophthalamide]
6,< 300 nM,COc1cccc(CNCC(O)C(Cc2ccccc2)NC(=O)c2cccc(C(=O)N(C)Cc3coc(C)n3)c2)c1 (centres unmarked) [N1-(3-hydroxy-4-(3-methoxybenzylamino)-1-phenylbutan-2-yl)-N3-methyl-N3-((2-methyloxazol-4-yl)methyl)isophthalamide]
7,> 501 nM,COc1cccc(CNCC(O)C(Cc2ccccc2)NC(=O)c2cccc(C(=O)N(C)Cc3cnccn3)c2)c1 (centres unmarked) [N1-(3-hydroxy-4-(3-methoxybenzylamino)-1-phenylbutan-2-yl)-N3-methyl-N3-(pyrazin-2-ylmethyl)isophthalamide]
8,> 501 nM,Cc1ccc(CNCC(O)C(Cc2ccccc2)NC(=O)c2cccc(C(=O)N(C)Cc3nc(C)cs3)c2)cc1 (centres unmarked) [N1-(3-hydroxy-4-(4-methylbenzylamino)-1-phenylbutan-2-yl)-N3-methyl-N3-((4-methylthiazol-2-yl)methyl)isophthalamide]
9,> 501 nM,CC(NC(=O)c1cc(C(=O)NC(Cc2ccccc2)C(O)CNCC2CCCN2C(C)C)cc(N(C)S(C)(=O)=O)c1)c1ccccc1 (centres unmarked) [N1-(3-hydroxy-4-((1-isopropylpyrrolidin-2-yl)methylamino)-1-phenylbutan-2-yl)-5-(N-methylmethylsulfonamido)-N3-(1-phenylethyl)isophthalamide]
10,> 501 nM,Cc1cc(CNCC(O)C(Cc2ccccc2)NC(=O)c2cc(C(=O)NC(C)c3ccccc3)cc(N(C)S(C)(=O)=O)c2)[nH]n1 (centres unmarked) [N1-(3-hydroxy-4-((3-methyl-1H-pyrazol-5-yl)methylamino)-1-phenylbutan-2-yl)-5-(N-methylmethylsulfonamido)-N3-(1-phenylethyl)isophthalamide]
11,< 300 nM,CCOc1cccc(CNCC(O)C(Cc2ccccc2)NC(=O)c2cccc(C(=O)N(C)Cc3nc(C)cs3)c2)c1 (centres unmarked) [N1-(4-(3-ethoxybenzylamino)-3-hydroxy-1-phenylbutan-2-yl)-N3-methyl-N3-((4-methylthiazol-2-yl)methyl)isophthalamide]
12,> 501 nM,Cc1csc(CN(C)C(=O)c2cccc(C(=O)NC(Cc3ccccc3)C(O)CNCc3ccccc3)c2)n1 (centres unmarked) [N1-(4-(benzylamino)-3-hydroxy-1-phenylbutan-2-yl)-N3-methyl-N3-((4-methylthiazol-2-yl)methyl)isophthalamide]
13,< 300 nM,COc1cccc(CNCC(O)C(Cc2ccccc2)NC(=O)c2cccc(C(=O)N(Cc3ccccc3)Cc3nc(C)cs3)c2)c1 (centres unmarked) [N1-benzyl-N3-(3-hydroxy-4-(3-methoxybenzylamino)-1-phenylbutan-2-yl)-N1-((4-methylthiazol-2-yl)methyl)isophthalamide]
14,301 to 500 nM,COc1cccc(CNCC(O)C(Cc2ccccc2)NC(=O)c2cccc(C(=O)N(Cc3nc(C)cs3)C3CCCCC3)c2)c1 (centres unmarked) [N1-cyclohexyl-N3-(3-hydroxy-4-(3-methoxybenzylamino)-1-phenylbutan-2-yl)-N1-((4-methylthiazol-2-yl)methyl)isophthalamide]
15,< 300 nM,COc1cccc(CNCC(O)C(Cc2ccccc2)NC(=O)c2cccc(C(=O)N(Cc3nc(C)cs3)C3CCCC3)c2)c1 (centres unmarked) [N1-cyclopentyl-N3-(3-hydroxy-4-(3-methoxybenzylamino)-1-phenylbutan-2-yl)-N1-((4-methylthiazol-2-yl)methyl)isophthalamide]

row,SMILES,Ki
1,Cc1csc(CN(C)C(=O)c2cccc(C(=O)NC(Cc3ccccc3)C(O)CNCc3cccc(OCC(C)C)c3)c2)n1 (centres unmarked) [N1-(3-hydroxy-4-(3-isobutoxybenzylamino)-1-phenylbutan-2-yl)-N3-methyl-N3-((4-methylthiazol-2-yl)methyl)isophthalamide],< 300 nM

# System: Aβ production in Chinese hamster ovary cells that over-express human APP695 with the London and Swedish mutations
# Assay: Cellular Aβ IC50 determination (Aβ40 sandwich ELISA)
# Conditions: Cricetulus griseus, CHO, 24 h, read-out: Cell, Aβ40, CHO cells over-expressing human APP695 (London and Swedish mutations), 24 h
row,IC50,SMILES
1,1000 to 5000 nM,"COc1cccc(CN(CC(O)C(Cc2ccccc2)NC(=O)c2cc(C(=O)NC(C)c3ccccc3)cc(N(C)S(C)(=O)=O)c2)C(=O)CCC(=O)OCC(O)C2OC(=O)C(O)=C2O)c1 (centres unmarked) [2-(3,4-dihydroxy-5-oxo-2,5-dihydrofuran-2-yl)-2-hydroxyethyl 4-((2-hydroxy-3-(3-(N-methylmethylsulfonamido)-5-(1-phenylethylcarbamoyl)benzamido)-4-phenylbutyl)(3-methoxybenzyl)amino)-4-oxobutanoate]"
2,< 1000 nM,"COc1cccc(CNCC(O)C(Cc2cc(F)cc(F)c2)NC(=O)c2cc(C(=O)NC(C)c3ccccc3)cc(N(C)S(C)(=O)=O)c2)c1 (centres unmarked) [N1-(1-(3,5-difluorophenyl)-3-hydroxy-4-(3-methoxybenzylamino)butan-2-yl)-5-(N-methylmethylsulfonamido)-N3-(1-phenylethyl)isophthalamide]"
3,< 1000 nM,COc1cccc(CNCC(O)C(Cc2ccccc2)NC(=O)c2cc(C(=O)NC(C)c3nc(C)cs3)cc(N(C)S(C)(=O)=O)c2)c1 (centres unmarked) [N1-(3-hydroxy-4-(3-methoxybenzylamino)-1-phenylbutan-2-yl)-5-(N-methylmethylsulfonamido)-N3-(1-(4-methylthiazol-2-yl)ethyl)isophthalamide]
4,> 5000 nM,CC(C)CN1CCC(CNCC(O)C(Cc2ccccc2)NC(=O)c2cc(C(=O)NC(C)c3ccccc3)cc(N(C)S(C)(=O)=O)c2)CC1 (centres unmarked) [N1-(3-hydroxy-4-((1-isobutylpiperidin-4-yl)methylamino)-1-phenylbutan-2-yl)-5-(N-methylmethylsulfonamido)-N3-(1-phenylethyl)isophthalamide dihydrochloride]
5,< 1000 nM,COc1ccnc(CNCC(O)C(Cc2ccccc2)NC(=O)c2cc(C(=O)NC(C)c3ccccc3)cc(N(C)S(C)(=O)=O)c2)c1 (centres unmarked) [N1-(3-hydroxy-4-((4-methoxypyridin-2-yl)methylamino)-1-phenylbutan-2-yl)-5-(N-methylmethylsulfonamido)-N3-(1-phenylethyl)isophthalamide]
6,< 1000 nM,CC(C)Cc1cncc(CNCC(O)C(Cc2ccccc2)NC(=O)c2cc(C(=O)NC(C)c3ccccc3)cc(N(C)S(C)(=O)=O)c2)c1 (centres unmarked) [N1-(3-hydroxy-4-((5-isobutylpyridin-3-yl)methylamino)-1-phenylbutan-2-yl)-5-(N-methylmethylsulfonamido)-N3-(1-phenylethyl)isophthalamide]
7,1000 to 5000 nM,COc1cccc(CN(CC(O)C(Cc2ccccc2)NC(=O)c2cc(C(=O)NC(C)c3ccccc3)cc(N(C)S(C)(=O)=O)c2)C(=O)CCC(=O)NCCN2CCOCC2)c1 (centres unmarked) [N1-(3-hydroxy-4-(N-(3-methoxybenzyl)-4-(2-morpholinoethylamino)-4-oxobutanamido)-1-phenylbutan-2-yl)-5-(N-methylmethylsulfonamido)-N3-(1-phenylethyl)isophthalamide]
8,> 5000 nM,COc1cccc(CN(CC(O)C(Cc2ccccc2)NC(=O)c2cc(C(=O)NC(C)c3ccccc3)cc(N(C)S(C)(=O)=O)c2)C(=O)CCC(=O)NCc2cccnc2)c1 (centres unmarked) [N1-(3-hydroxy-4-(N-(3-methoxybenzyl)-4-oxo-4-(pyridin-3-ylmethylamino)butanamido)-1-phenylbutan-2-yl)-5-(N-methylmethylsulfonamido)-N3-(1-phenylethyl)isophthalamide]

# Same assay, conditions: read-out: Cell; Aβ40, CHO cells over-expressing human APP695 (London and Swedish mutations), 24 h
row,IC50,SMILES
1,1000 to 5000 nM,COc1ccccc1CN1CCC(CNCC(O)C(Cc2ccccc2)NC(=O)c2cc(C(=O)NC(C)c3ccccc3)cc(N(C)S(C)(=O)=O)c2)CC1 (centres unmarked) [N1-(3-hydroxy-4-((1-(2-methoxybenzyl)piperidin-4-yl)methylamino)-1-phenylbutan-2-yl)-5-(N-methylmethylsulfonamido)-N3-(1-phenylethyl)isophthalamide]

# Same assay, conditions: read-out: Cell; Aβ40, CHO cells over-expressing human APP695 (London and Swedish mutations), 24 h; dihydrochloride
row,IC50,SMILES
1,> 5000 nM,COc1ccccc1CN1CCC(CNCC(O)C(Cc2ccccc2)NC(=O)c2cc(C(=O)NC(C)c3ccccc3)cc(N(C)S(C)(=O)=O)c2)CC1 (centres unmarked) [N1-(3-hydroxy-4-((1-(2-methoxybenzyl)piperidin-4-yl)methylamino)-1-phenylbutan-2-yl)-5-(N-methylmethylsulfonamido)-N3-(1-phenylethyl)isophthalamide dihydrochloride]
